{"source": "patent US9951028B2", "about": "“Agricultural chemicals” (REDAG CROP PROTECTION LTD, priority 2013, dated 2018)", "type_in_all_cases": "in vivo", "key": {"[1]": {"system": "Abutilon theophrasti (China Jute)", "assay": "Herbicidal efficacy screen, corrected necrosis", "settings": "for control over A. theophrasti: after 10 days, Table 5"}, "Echinochloa crus-galli": {"system": "Echinochloa crus-galli", "assay": "Herbicidal efficacy screen, corrected necrosis", "settings": "Table 5; for control over E. crus galli: after 10 days"}, "Hordeum vulgare (Barley)": {"system": "Hordeum vulgare (Barley)", "assay": "Herbicidal efficacy screen, corrected necrosis", "settings": "Table 5"}, "[2]": {"system": "Amaranthus retroflexus (redroot pigweed)", "assay": "Herbicidal efficacy screen, corrected necrosis"}, "[3]": {"system": "Capsella bursa-pastoris, (shepherd's-purse)", "assay": "Herbicidal efficacy screen, corrected necrosis"}, "[4]": {"system": "A. retroflexus, A. theophrasti, C. bursa pastoris", "assay": "Herbicidal efficacy screen, text summary of table 2 over all target weed species", "settings": "certain weed species, after 1 day", "text": "(§1) Certain compounds of the invention were screened for herbicidal efficacy against target plants: Amaranthus retroflexus (redroot pigweed), Abutilon theophrasti (China Jute): Capsella bursa-pastoris, (shepherd's-purse) Echinochloa crus-galli, Hordeum vulgare (Barley),"}, "[5]": {"system": "A. theophrasti, E. crus galli, H. vulgare", "assay": "Herbicidal efficacy screen, summary of tables 3-5 over all target weed species", "settings": "table 3", "text": "as §1"}, "[6]": {"settings": "6.25 g/ha, day 1 post application"}, "[7]": {"settings": "6.25 g/ha, day 7 post application"}, "[8]": {"settings": "12.5 g/ha, day 1 post application"}, "[9]": {"settings": "12.5 g/ha, day 7 post application"}, "[10]": {"settings": "25 g/ha, day 1 post application"}, "[11]": {"settings": "25 g/ha, day 7 post application"}, "[12]": {"settings": "50 g/ha, day 1 post application"}, "[13]": {"settings": "50 g/ha, day 7 post application"}, "[14]": {"settings": "100 g/ha, day 1 post application"}, "[15]": {"settings": "100 g/ha, day 7 post application"}}, "data": [{"smiles": "CSc1c(C(F)(F)F)ccc(CNc2nonc2C)c1C", "note": "[Compound 47, 4-Methyl-N-[[2-methyl-3-methylsulfanyl-4-(trifluoromethyl)phenyl]methyl]-1,2,5-oxadiazol-3-amine]", "values": [{"measurement": "control over A. theophrasti", "setting": "[1]", "value": "good control"}, {"measurement": "control over E. crus galli", "setting": "Echinochloa crus-galli", "value": "good control"}, {"measurement": "control of E. crus galli relative to the reference compound 48", "setting": "Echinochloa crus-galli; at low dosages", "value": "improved control"}, {"measurement": "control over H. vulgare", "setting": "Hordeum vulgare (Barley)", "value": "good control"}, {"measurement": "control of H. vulgare relative to the reference compound 48", "setting": "Hordeum vulgare (Barley); at low dosages", "value": "improved control"}]}, {"smiles": "CC(C)C(C)S(=O)(=O)NC(=O)c1cc(-n2c(=O)cc(C(F)(F)F)n(C)c2=O)c(F)cc1Cl", "note": "(stereo not shown) [Compound 26, 2-Chloro-N-(1,2-dimethylpropylsulfonyl)-4-fluoro-5-[3-methyl-2,6-dioxo-4-(trifluoromethyl)pyrimidin-1-yl]benzamide]", "values": [{"measurement": "Average of corrected necrosis", "setting": "[1]; [6]", "value": "C (C represents a percentage increase in necrosis relative to the control of 0.1-50)"}, {"measurement": "Average of corrected necrosis", "setting": "[1]; [7]", "value": "A (A represents a percentage inhibition of 80-100)"}, {"measurement": "Average of corrected necrosis", "setting": "[1]; [8]", "value": 0, "unit": "%"}, {"measurement": "Average of corrected necrosis", "setting": "[1]; [9]", "value": "A (A represents a percentage inhibition of 80-100)"}, {"measurement": "Average of corrected necrosis", "setting": "[1]; [10]", "value": "C (C represents a percentage increase in necrosis relative to the control of 0.1-50)"}, {"measurement": "Average of corrected necrosis", "setting": "[1]; [11]", "value": "A (A represents a percentage inhibition of 80-100)"}, {"measurement": "Average of corrected necrosis", "setting": "[1]; [12]", "value": "C (C represents a percentage increase in necrosis relative to the control of 0.1-50)"}, {"measurement": "Average of corrected necrosis", "setting": "[1]; [13]", "value": "A (A represents a percentage inhibition of 80-100)"}, {"measurement": "Average of corrected necrosis", "setting": "[1]; [14]", "value": "B (B represents a percentage inhibition of 50-80)"}, {"measurement": "Average of corrected necrosis", "setting": "[1]; [15]", "value": "A (A represents a percentage inhibition of 80-100)"}, {"measurement": "Average of corrected necrosis", "setting": "[2]; [6]", "value": "C (C represents a percentage increase in necrosis relative to the control of 0.1-50)"}, {"measurement": "Average of corrected necrosis", "setting": "[2]; [7]", "value": "A (A represents a percentage inhibition of 80-100)"}, {"measurement": "Average of corrected necrosis", "setting": "[2]; [8]", "value": "C (C represents a percentage increase in necrosis relative to the control of 0.1-50)"}, {"measurement": "Average of corrected necrosis", "setting": "[2]; [9]", "value": "A (A represents a percentage inhibition of 80-100)"}, {"measurement": "Average of corrected necrosis", "setting": "[2]; [10]", "value": "C (C represents a percentage increase in necrosis relative to the control of 0.1-50)"}, {"measurement": "Average of corrected necrosis", "setting": "[2]; [11]", "value": "A (A represents a percentage inhibition of 80-100)"}, {"measurement": "Average of corrected necrosis", "setting": "[2]; [12]", "value": "C (C represents a percentage increase in necrosis relative to the control of 0.1-50)"}, {"measurement": "Average of corrected necrosis", "setting": "[2]; [13]", "value": "A (A represents a percentage inhibition of 80-100)"}, {"measurement": "Average of corrected necrosis", "setting": "[2]; [14]", "value": "C (C represents a percentage increase in necrosis relative to the control of 0.1-50)"}, {"measurement": "Average of corrected necrosis", "setting": "[2]; [15]", "value": "A (A represents a percentage inhibition of 80-100)"}, {"measurement": "Average of corrected necrosis", "setting": "[3]; [6]", "value": "C (C represents a percentage increase in necrosis relative to the control of 0.1-50)"}, {"measurement": "Average of corrected necrosis", "setting": "[3]; [7]", "value": "A (A represents a percentage inhibition of 80-100)"}, {"measurement": "Average of corrected necrosis", "setting": "[3]; [8]", "value": "C (C represents a percentage increase in necrosis relative to the control of 0.1-50)"}, {"measurement": "Average of corrected necrosis", "setting": "[3]; [9]", "value": 0, "unit": "%"}, {"measurement": "Average of corrected necrosis", "setting": "[3]; [10]", "value": "C (C represents a percentage increase in necrosis relative to the control of 0.1-50)"}, {"measurement": "Average of corrected necrosis", "setting": "[3]; [11]", "value": "A (A represents a percentage inhibition of 80-100)"}, {"measurement": "Average of corrected necrosis", "setting": "[3]; [12]", "value": "C (C represents a percentage increase in necrosis relative to the control of 0.1-50)"}, {"measurement": "Average of corrected necrosis", "setting": "[3]; [13]", "value": "A (A represents a percentage inhibition of 80-100)"}, {"measurement": "Average of corrected necrosis", "setting": "[3]; [14]", "value": "C (C represents a percentage increase in necrosis relative to the control of 0.1-50)"}, {"measurement": "Average of corrected necrosis", "setting": "[3]; [15]", "value": "A (A represents a percentage inhibition of 80-100)"}, {"measurement": "control compared with the reference compound (saflufenacil)", "setting": "[4]", "value": "better control"}]}, {"smiles": "CSc1c(C(F)(F)F)ccc(C(=O)Nc2nonc2C)c1C", "note": "[Compound 48, 2-Methyl-N-(4-methyl-1,2,5-oxadiazol-3-yl)-3-methylsulfanyl-4-(trifluoromethyl)benzamide, reference compound]", "values": [{"measurement": "control over A. theophrasti", "setting": "[1]", "value": "good control"}, {"measurement": "control over E. crus galli", "setting": "Echinochloa crus-galli", "value": "good control"}]}, {"smiles": "C#CC(c1ccc(F)cc1)C(CC(=O)OCC)c1c(F)cccc1F", "note": "(stereo not shown) [Compound 37, Ethyl 3-(2,6-difluorophenyl)-4-(4-fluorophenyl)hex-5-ynoate]", "values": [{"measurement": "control compared with prior art compounds 27 and 27a", "setting": "[5]", "value": "significantly better control"}, {"measurement": "control over all three weed species", "setting": "[5]", "value": "excellent control"}]}]}
